Data set [1] in a line: Stress degradation of plain TEL drug, stability indicating HPLC method. The class given is physicochemical.
The conditions of data set [2]: n-octanol: buffer pH 7.4; cited from earlier work.
The conditions of data set [3]: pH 3 to 9; cited from earlier work.

Each structure is given as a SMILES string.

Take `CCCc1nc2c(C)cc(-c3nc4ccccc4n3C)cc2n1Cc1ccc(-c2ccccc2C(=O)O)cc1` [TEL, Telmisartan]: the “reduction in area (HPLC)” value in data set [1] (1 N NaOH at 80° C. for 8 hours) is on record as 64.4%. Further, the TEL degradation entry in data set [1] (pH modifiers employed in low concentration) was “no TEL degradation was observed”. For the same compound, in data set [2], the “partition coefficient, log P” value is on record as 3.2. Besides, the solubility result in data set [3] is reported as “poorly soluble”.

The record behind these values is patent US10952966B2, “Pharmaceutical composition comprising solid dispersion of BCS class II drugs with Gelucires” (GATTEFOSSE INDIA PVT. LTD., priority 2014, dated 2021).
